By Ki is commonly meant a dissociation constant, usually derived from enzyme kinetics or from competition with a known ligand.

This passage reports Ki results from patent US12723063B2, “GIPR-agonist compounds” (Eli Lilly and Company, priority 2019, dated 2026).

*1 amine or outer side, *2 acyl side, *3 side chain or, on linkers, in order; H or OH if unused. Where a SMILES comes first, the peptide text is derived from it. Side-chain parts run from the residue outwards. [ ]: non-standard residue; d: D form. The star is where a group is joined. C20 diacid = O=C(O)CCCCCCCCCCCCCCCCCCC(=O)*; C18 diacid = O=C(O)CCCCCCCCCCCCCCCCC(=O)*; γGlu = O=C(O)[C@H](CCC(=O)[*:2])N[*:1]; AEEA = NCCOCCOCC(=O)O; Aib = CC(C)(N)C(=O)O

This assay deals with T1, human GLP-1R (Homo sapiens, UniProt P43220).
T1 construct: expressed in transfected cells; crude membranes
T1 sequence (P43220 24-463): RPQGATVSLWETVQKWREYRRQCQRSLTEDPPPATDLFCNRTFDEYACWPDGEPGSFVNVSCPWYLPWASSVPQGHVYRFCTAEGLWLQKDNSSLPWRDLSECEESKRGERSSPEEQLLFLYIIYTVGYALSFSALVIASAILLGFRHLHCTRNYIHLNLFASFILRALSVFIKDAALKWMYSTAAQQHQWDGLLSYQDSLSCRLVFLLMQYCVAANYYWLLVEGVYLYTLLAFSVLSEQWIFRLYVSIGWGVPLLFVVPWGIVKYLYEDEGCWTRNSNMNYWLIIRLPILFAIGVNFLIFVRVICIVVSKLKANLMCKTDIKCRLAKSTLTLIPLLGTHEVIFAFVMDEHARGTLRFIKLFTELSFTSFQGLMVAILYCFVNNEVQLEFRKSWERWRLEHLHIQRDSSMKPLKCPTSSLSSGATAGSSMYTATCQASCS
In words: [125I]-GLP-1 binding, SPA with WGA beads, 0.1% bacitracin. The settings on record: geometric mean, read-out: hGLP1R Ki. Here is the method: Stably transfected cell lines are prepared by subcloning receptor cDNA into a pcDNA3 expression plasmid and transfected into human embryonic kidney (HEK) 293 (hGcgR and hGLP-1R) or Chinese Hamster Ovary (CHO) (hGIPR) cells followed by selection with Geneticin (hGLP-1R and hGIPR) or hygromycin B (hGcgR).
Two methods are used for the preparation of crude cell membranes.
Method 1: Frozen cell pellets are lysed on ice in hypotonic buffer containing 50 mM Tris HCl, pH 7.5, and Roche Complete™ Protease Inhibitors with EDTA. The cell suspension is disrupted using a glass Potter-Elvehjem homogenizer fitted with a Teflon® pestle for 25 strokes. The homogenate is centrifuged at 4° C. at 1100× g for 10 minutes. The supernatant is collected and stored on ice while the pellets are resuspended in homogenization buffer and rehomogenized as described above. The homogenate is centrifuged at 1100× g for 10 minutes. The second supernatant is combined with the first supernatant and centrifuged at 35000× g for 1 hour at 4° C. The resulting membrane pellet is resuspended in homogenization buffer containing protease inhibitors at approximately 1 to 3 mg/mL, quick frozen in liquid nitrogen and stored as aliquots in a −80° C. freezer until use.
Method 2: Frozen cell pellets are lysed on ice in hypotonic buffer containing 50 mM Tris HCl, pH 7.5, 1 mM MgCl2, Roche Complete™ EDTA-free Protease Inhibitors and 25 units/mL DNAse I (Invitrogen). The cell suspension is disrupted using a glass Potter-Elvehjem homogenizer fitted with a Teflon® pestle for 20 to 25 strokes. The homogenate is centrifuged at 4° C. at 1800× g for 15 minutes. The supernatant is collected and stored on ice while the pellets are resuspended in homogenization buffer (without DNAse I) and rehomogenized as described above. The homogenate is centrifuged at 1800× g for 15 minutes. The second supernatant is combined with the first supernatant and centrifuged an additional time at 1800× g for 15 minutes. The overall supernatant is then centrifuged at 25000× g for 30 minutes at 4° C. The resulting membrane pellet is resuspended in homogenization buffer (without DNAse I) containing protease inhibitors at approximately 1 to 3 mg/mL and stored as aliquots in a −80° C. freezer until use.
The binding buffer contains 25 mM HEPES, pH 7.4, 2.5 mM CaCl2), 1 mM MgCl2, 0.1% (w/v) bacitracin, 0.003% (w/v) TWEEN®-20, and Roche Complete™ Protease Inhibitors without EDTA.
Data are analyzed using four-parameter (curve maximum, curve minimum, IC50, Hill slope) nonlinear regression routines (Genedata Screener, version 12.0.4, Genedata AG, Basal, Switzerland). […] Values for Ki are reported as the geometric mean, with error expressed as the standard error of the mean (SEM) and n is equal to the number of independent replicates (determined in assays performed on different days). […] SEM is only calculated when […] or greater. Means are expressed as geometric means with the standard error of the mean (SEM) and the number of replicates (n) indicated in parentheses.
As to `CC[C@H](C)[C@H](NC(=O)[C@H](CO)NC(=O)[C@H](Cc1ccc(O)cc1)NC(=O)[C@H](CC(=O)O)NC(=O)[C@H](CO)NC(=O)[C@@H](NC(=O)[C@H](Cc1ccccc1)NC(=O)[C@@H](NC(=O)CNC(=O)[C@H](CCC(=O)O)NC(=O)[C@@H](C)NC(=O)[C@@H](N)Cc1ccc(O)cc1)[C@@H](C)O)[C@@H](C)CC)C(=O)N[C@@H](CC(C)C)C(=O)N[C@@H](CC(C)C)C(=O)N[C@@H](CC(=O)O)C(=O)N[C@@H](CCCCN)C(=O)N[C@@H](CCCCNC(=O)COCCOCCNC(=O)COCCOCCNC(=O)CC[C@H](NC(=O)CCCCCCCCCCCCCCCCCCC(=O)O)C(=O)O)C(=O)N[C@@H](Cc1c[nH]cn1)C(=O)N[C@@H](CCC(N)=O)C(=O)N[C@@H](CCC(N)=O)C(=O)N[C@@H](CCC(=O)O)C(=O)N[C@@H](Cc1ccccc1)C(=O)N[C@H](C(=O)N[C@@H](CC(N)=O)C(=O)N[C@@H](Cc1c[nH]c2ccccc12)C(=O)N[C@@H](CC(C)C)C(=O)N[C@@H](CC(C)C)C(=O)N[C@@H](C)C(=O)N[C@@H](CCC(N)=O)C(=O)NCC(=O)N1CCC[C@H]1C(=O)N[C@@H](CO)C(=O)N[C@@H](CO)C(=O)NCC(=O)N[C@@H](C)C(=O)N1CCC[C@H]1C(=O)N1CCC[C@H]1C(=O)N1CCC[C@H]1C(=O)N[C@@H](CO)C(N)=O)C(C)C` [Example 13] (H-Y[dA]EGTFISDYSILLDKK([AEEA-AEEA-γGlu-C20 diacid])HQQEFVNWLLAQGPSSGAPPPS-NH2), the Ki is over 0.213 µM.
As for `CC[C@H](C)[C@H](NC(=O)[C@H](CO)NC(=O)[C@H](Cc1ccc(O)cc1)NC(=O)[C@H](CC(=O)O)NC(=O)[C@H](CO)NC(=O)[C@@H](NC(=O)[C@H](Cc1ccccc1)NC(=O)[C@@H](NC(=O)CNC(=O)[C@H](CCC(=O)O)NC(=O)[C@@H](C)NC(=O)[C@@H](N)Cc1ccc(O)cc1)[C@@H](C)O)[C@@H](C)CC)C(=O)N[C@@H](CC(C)C)C(=O)N[C@@H](CC(C)C)C(=O)N[C@@H](CC(=O)O)C(=O)N[C@@H](CCCCN)C(=O)N[C@@H](CCCCNC(=O)COCCOCCNC(=O)COCCOCCNC(=O)CC[C@H](NC(=O)CCCCCCCCCCCCCCCCCCC(=O)O)C(=O)O)C(=O)N[C@@H](Cc1c[nH]cn1)C(=O)N[C@@H](CCC(N)=O)C(=O)N[C@@H](CCC(N)=O)C(=O)N[C@@H](CC(=O)O)C(=O)N[C@@H](Cc1ccccc1)C(=O)N[C@H](C(=O)N[C@@H](CCC(=O)O)C(=O)N[C@@H](Cc1c[nH]c2ccccc12)C(=O)N[C@@H](CC(C)C)C(=O)N[C@@H](CC(C)C)C(=O)N[C@@H](C)C(=O)N[C@@H](CCC(N)=O)C(=O)NCC(=O)N1CCC[C@H]1C(=O)N[C@@H](CO)C(=O)N[C@@H](CO)C(=O)NCC(=O)N[C@@H](C)C(=O)N1CCC[C@H]1C(=O)N1CCC[C@H]1C(=O)N1CCC[C@H]1C(=O)N[C@@H](CO)C(N)=O)C(C)C` [Example 14] (H-Y[dA]EGTFISDYSILLDKK([AEEA-AEEA-γGlu-C20 diacid])HQQDFVEWLLAQGPSSGAPPPS-NH2), the Ki was over 0.213 µM.
As for `CC[C@H](C)[C@H](NC(=O)[C@H](CO)NC(=O)[C@H](Cc1ccc(O)cc1)NC(=O)[C@H](CC(=O)O)NC(=O)[C@H](CO)NC(=O)[C@@H](NC(=O)[C@H](Cc1ccccc1)NC(=O)[C@@H](NC(=O)CNC(=O)[C@H](CCC(=O)O)NC(=O)[C@@H](C)NC(=O)[C@@H](N)Cc1ccc(O)cc1)[C@@H](C)O)[C@@H](C)CC)C(=O)N[C@@H](CC(C)C)C(=O)N[C@@H](CC(C)C)C(=O)N[C@@H](CC(=O)O)C(=O)N[C@@H](CCCCN)C(=O)N[C@@H](CCCCNC(=O)COCCOCCNC(=O)COCCOCCNC(=O)CC[C@H](NC(=O)CCCCCCCCCCCCCCCCCCC(=O)O)C(=O)O)C(=O)N[C@@H](Cc1c[nH]cn1)C(=O)N[C@@H](CCC(N)=O)C(=O)N[C@@H](CCC(N)=O)C(=O)N[C@@H](CC(=O)O)C(=O)N[C@@H](Cc1ccccc1)C(=O)N[C@H](C(=O)N[C@@H](CC(N)=O)C(=O)N[C@@H](Cc1ccc(O)cc1)C(=O)N[C@@H](CC(C)C)C(=O)N[C@@H](CC(C)C)C(=O)N[C@@H](C)C(=O)N[C@@H](CCC(N)=O)C(=O)NCC(=O)N1CCC[C@H]1C(=O)N[C@@H](CO)C(=O)N[C@@H](CO)C(=O)NCC(=O)N[C@@H](C)C(=O)N1CCC[C@H]1C(=O)N1CCC[C@H]1C(=O)N1CCC[C@H]1C(=O)N[C@@H](CO)C(N)=O)C(C)C` [Example 15] (H-Y[dA]EGTFISDYSILLDKK([AEEA-AEEA-γGlu-C20 diacid])HQQDFVNYLLAQGPSSGAPPPS-NH2), the figure is over 0.236 µM; as for `CC[C@H](C)[C@H](NC(=O)[C@H](CO)NC(=O)[C@H](Cc1ccc(O)cc1)NC(=O)[C@H](CC(=O)O)NC(=O)[C@H](CO)NC(=O)[C@@H](NC(=O)[C@H](Cc1ccccc1)NC(=O)[C@@H](NC(=O)CNC(=O)[C@H](CCC(=O)O)NC(=O)[C@@H](C)NC(=O)[C@@H](N)Cc1ccc(O)cc1)[C@@H](C)O)[C@@H](C)CC)C(=O)N[C@@H](CC(C)C)C(=O)N[C@@H](CC(C)C)C(=O)N[C@@H](CC(=O)O)C(=O)N[C@@H](CCCCN)C(=O)N[C@@H](CCCCNC(=O)COCCOCCNC(=O)COCCOCCNC(=O)CC[C@H](NC(=O)CCCCCCCCCCCCCCCCC(=O)O)C(=O)O)C(=O)N[C@@H](C)C(=O)N[C@@H](CCC(N)=O)C(=O)NC(C)(C)C(=O)N[C@@H](CC(=O)O)C(=O)N[C@@H](Cc1ccccc1)C(=O)N[C@H](C(=O)N[C@@H](CCC(=O)O)C(=O)N[C@@H](Cc1c[nH]c2ccccc12)C(=O)N[C@@H](CC(C)C)C(=O)N[C@@H](CC(C)C)C(=O)N[C@@H](C)C(=O)N[C@@H](CCC(N)=O)C(=O)NCC(=O)N1CCC[C@H]1C(=O)N[C@@H](CO)C(=O)N[C@@H](CO)C(=O)NCC(=O)N[C@@H](C)C(=O)N1CCC[C@H]1C(=O)N1CCC[C@H]1C(=O)N1CCC[C@H]1C(=O)N[C@@H](CO)C(N)=O)C(C)C` [Example 16] (H-Y[dA]EGTFISDYSILLDKK([AEEA-AEEA-γGlu-C18 diacid])AQ[Aib]DFVEWLLAQGPSSGAPPPS-NH2), 0.0992 µM; as for `CC[C@H](C)[C@H](NC(=O)[C@H](CO)NC(=O)[C@H](Cc1ccc(O)cc1)NC(=O)[C@H](CC(=O)O)NC(=O)[C@H](CO)NC(=O)[C@@H](NC(=O)[C@H](Cc1ccccc1)NC(=O)[C@@H](NC(=O)CNC(=O)[C@H](CCC(=O)O)NC(=O)[C@@H](C)NC(=O)[C@@H](N)Cc1ccc(O)cc1)[C@@H](C)O)[C@@H](C)CC)C(=O)N[C@@H](CC(C)C)C(=O)N[C@@H](CC(C)C)C(=O)N[C@@H](CC(=O)O)C(=O)N[C@@H](CCCCN)C(=O)N[C@@H](CCCCNC(=O)COCCOCCNC(=O)COCCOCCNC(=O)CC[C@H](NC(=O)CCCCCCCCCCCCCCCCC(=O)O)C(=O)O)C(=O)N[C@@H](C)C(=O)N[C@@H](CCC(N)=O)C(=O)NC(C)(C)C(=O)N[C@@H](CC(=O)O)C(=O)N[C@@H](Cc1ccccc1)C(=O)N[C@H](C(=O)N[C@@H](CC(N)=O)C(=O)N[C@@H](Cc1c[nH]c2ccccc12)C(=O)N[C@@H](CC(C)C)C(=O)N[C@@H](CC(C)C)C(=O)N[C@@H](CCC(=O)O)C(=O)N[C@@H](CCC(N)=O)C(=O)NCC(=O)N1CCC[C@H]1C(=O)N[C@@H](CO)C(=O)N[C@@H](CO)C(=O)NCC(=O)N[C@@H](C)C(=O)N1CCC[C@H]1C(=O)N1CCC[C@H]1C(=O)N1CCC[C@H]1C(=O)N[C@@H](CO)C(N)=O)C(C)C` [Example 17] (H-Y[dA]EGTFISDYSILLDKK([AEEA-AEEA-γGlu-C18 diacid])AQ[Aib]DFVNWLLEQGPSSGAPPPS-NH2), 0.106 µM.
